From patent US20120195840A1, “PERSONAL CARE COMPOSITION” (priority 2009, published 2012)

Target: T1, human tyrosinase enzyme (Homo sapiens, UniProt P14679)
T1 sequence (P14679 19-529): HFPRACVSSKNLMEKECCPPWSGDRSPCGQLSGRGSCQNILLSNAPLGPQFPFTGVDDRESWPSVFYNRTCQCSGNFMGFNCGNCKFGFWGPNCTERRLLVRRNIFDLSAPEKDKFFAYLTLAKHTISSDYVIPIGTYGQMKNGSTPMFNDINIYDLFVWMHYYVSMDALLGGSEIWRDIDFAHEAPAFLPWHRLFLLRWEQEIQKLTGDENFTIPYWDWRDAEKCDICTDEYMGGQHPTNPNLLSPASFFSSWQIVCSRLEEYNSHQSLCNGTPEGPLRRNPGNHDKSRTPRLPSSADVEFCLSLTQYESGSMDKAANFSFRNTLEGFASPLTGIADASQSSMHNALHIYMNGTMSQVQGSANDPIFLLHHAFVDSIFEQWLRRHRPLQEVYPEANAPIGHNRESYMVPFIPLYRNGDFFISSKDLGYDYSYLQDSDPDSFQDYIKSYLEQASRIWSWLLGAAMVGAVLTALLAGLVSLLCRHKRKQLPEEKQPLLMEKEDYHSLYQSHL
Test: human tyrosinase inhibition (procedure as for mushroom tyrosinase)
Assay type: biochemical
Conditions: sample at 7.5 ppm
Method: An indication of the efficacy of skin lightening was determined using an in-vitro tyrosinanse inhibition assay using mushroom tyrosinase. The assay comprised measuring O-diphenolase activities of mushroom tyrosinase with L-DOPA as substrate. This was determined spectrophotometrically by measuring the rate of dopachrome formation at 450 nm (ε=3700 M−1 cm−1). Inhibition studies were done by measuring the dopachrome formation in the presence of various extracts of plant material. The experiment was conducted using the following procedure:
The following stock solutions were prepared. 0.1 M phosphate buffer (KH2PO4, pH=6.5); 3.5 mM L-DOPA in phosphate buffer; 1 mg/ml mushroom tyrosinase enzyme (100 kU) in phosphate buffer. To the KH2PO4 buffer (q.s. to 200 μL) in a 96 well plate having flat bottom was added the desired sample (about 6 μl) followed by 8 μL of mushroom tyrosinase enzyme. This was left at room temperature in the dark for 15 min to enable incubation. Then L-DOPA (57 μL, […]) was added to the resultant solution and the progress of dopachrome formation was observed by measuring the absorbance at 450 nm (A450) on a Tecan spectrophotometer. Percent inhibition was calculated using (Control: without inhibitor) […]

- % human tyrosinase inhibition: 40%
SMILES: CCc1ccc(O)cc1O [Example 5, ethyl resorcinol]
